Measured values: patent publication US4511574A, “N-(4-Phenyl-2-thiazolyl)carbamate derivatives” (Mitsui Toatsu Kagaku Kabushiki Kaisha, priority 1981, dated 1985)
Where a name gives a salt, the structure may show the parent alone.

Legend:
[1] = system: adjuvant arthritis (Mycobacterium tuberculosis adjuvant); assay: Adjuvant arthritis test; type: in vivo, SD male rats; conditions: 5 mg/Kg subcutaneous, 9 times; left hind leg; average value from 16th to 20th days; * P<0.05, ** P<0.01, *** P<0.001 vs control
Source text: Next, a result of tests made on immuno-modulating activity in the adjuvant arthritis test is shown.
The adjuvant arthritis in rats caused by the injection of a Mycobacterium tuberculosis adjuvant is often utilized for a model test of chronic rheumatoid arthritis in the human.
The mechanism of manifestation of this disease has not completely been elucidated, but it is known that the cellular immunity plays an important role. The immuno-modulating activity of the compounds according to this invention was investigated in accordance with this known adjuvant arthritis test.
8-Week-old SD male rats were used for the test. In 0.1 ml of fluid paraffin, 0.4 mg of dry dead cells of Mycobacterium tuberculosis were suspended, and the suspension was injected under the heel skin of the right hind leg of each rat. Each of the compounds according to this invention was subcutaneously administered 9 times in total before and after the injection of the adjuvant. Each of the compounds of the present invention was dissolved or suspended in a 0.2% solution of carboxymethylcellulose in physiological saline and administered to each rat at a dose of 5 mg per Kg of the body weight. The swollen volume of the left hind leg was measured during the period extending from the day of injection to the day of completion of the test, and the swelling ratio was calculated. For comparison, a similar test was conducted using Levamisole hydrochloride. F.t tests were carried out on the test results obtained.

[2] = system: delayed hypersensitivity induced by picryl chloride; assay: Reinforcement test of delayed hypersensitivity (picryl chloride); type: in vivo, ICR male mice; conditions: 50 mg/Kg oral, simultaneously with sensitization; 24 hours after challenging; average of both pinnae of eight mice; * P<0.05, ** P<0.01 vs control
Source text: This feature will hereinafter be described by way of test examples. Various test systems using animals have been routinely adopted for the determination of immunomodulating activity.
The delayed hypersensitivity induced on a mouse when picryl chloride(2-chloro-1,3,5-trinitrobenzene) is applied onto the skin of the mouse is known as a typical cellular immunity.
This test system was used for the reinforcement tests of the delayed hypersensitivity.
Groups of eight ICR male mice, each having a body weight of about 30 g or so, were used for the test.
Sensitization was effected by applying a 3% solution of picryl chloride in a 4/1 mixture of olive oil and acetone onto the shaved abdomen of each of the mice.
Simultaneously with the sensitization, a solution or suspension of a compound according to this invention dissolved or suspended in a 0.2% solution of carboxymethyl cellulose in a physiological saline was orally administered to the mouse at a dose of 50 mg per Kg of its body weight. To each mouse of a control group, a 0.2% carboxymethylcellulose solution in a physiological saline was similarly administered.
The delayed hypersensitivity was induced 7 days after the sensitization by pinching each of the pinnae of each mouse with a pair of forceps whose tip portions were wrapped with a felt impregnated with a 1% solution of picryl chloride in olive oil and coating the pinnae with the solution. The thickness of each pinna was measured before the challenging and 24 hours after the challenging and the ratio of increase of the thickness (average value of both of the pinnae of the eight mice) is shown in Table 1.
For comparison, a similar test was carried out using Levamisole hydrochloride.
F.t tests were carried out on the thus-obtained test results.

ddY male mice = assay: Acute toxicity test through oral administration; type: in vivo; conditions: five ddY male mice per group, watched 7 days
Source text: TEST EXAMPLE 3 (ACUTE TOXICITY TEST THROUGH ORAL ADMINISTRATION)
Test Procedures: To each of a group of five ddY male mice, was orally administered a medicine dissolved or suspended in physiological saline. They were watched for 7 days after the administration and an estimated LD50 value was obtained.

Row | SMILES | Swell suppression ratio to control group [1] | Ratio of Increase of Pinna Thickness [2] | estimated LD50 value (ddY male mice)
1 | CCOC(=O)Nc1nc(-c2ccc(S(C)(=O)=O)cc2)cs1 [drawing 12] | 47.6% |  | 
2 | CCOC(=O)Nc1nc(-c2ccc([N+](=O)[O-])cc2)cs1 [drawing 11] | 71.4% |  | 
3 | O=C(Nc1nc(-c2ccc([N+](=O)[O-])cc2)cs1)OCC(Cl)(Cl)Cl [drawing 9] | 45.0% |  | 
4 | CCOC(=O)Nc1nc(-c2ccc(S(C)(=O)=O)cc2)cs1 [drawing 8] |  | 36.0% | 
5 | c1ccc([C@H]2CN3CCSC3=N2)cc1 [Levamisole.HCl, Levamisole hydrochloride, reference compound] | 19.8% | 31.2% | 200 to 300 mg/kg
6 | CCOC(=O)Nc1nc(-c2ccc([N+](=O)[O-])cc2)cs1 [drawing 7] |  | 34.8% | 
7 | O=C(Nc1nc(-c2ccc([N+](=O)[O-])cc2)cs1)OCC(Cl)(Cl)Cl [drawing 5] |  | 36.1% | 
8 | CS(=O)(=O)c1ccc(-c2csc(NC(=O)OCC(Cl)(Cl)Cl)n2)cc1 [drawing 6] |  | 37.8% | 
9 | CS(=O)(=O)c1ccc(-c2csc(NC(=O)OCC(Cl)(Cl)Cl)n2)cc1 [drawing 10] | 30.0% |  | 
